Data as given in US10344034B2, “Pyrazolopyrimidone or Pyrrolotriazone derivatives, method of preparing same, and pharmaceutical applications thereof” (Shanghai Hengrui Pharmaceutical Co., Ltd., priority 2013, dated 2019).
Where two headings read alike, the source gives them in different places.

Tests used:
rabbit GnRHr = rabbit GnRHr (Oryctolagus cuniculus, UniProt Q5U7L3); assay: Rabbit GnRHr inhibitory activity assay, rabbit GnRHr/CHO stably transfected cell lines; format: cell-based; details: rabbit GnRHr/CHO cells, GnRH polypeptide stimulant, Fluo-4
Procedure: Test Example 3. Rabbit GnRHr Inhibitory Activity Assay of the Present Compounds
This assay was used to determine the inhibition effect of the present compounds on the activity of rabbit GnRHr protein expressed by rabbit GnRHr/CHO stably transfected cell lines.
A mammalian expression vector containing the rabbit GnRHr gene was transferred into CHO cells by adding Lipofectamine® LTX reagent containing Plus™. Antibiotics were added the next day for screening to pick out the monoclonal cell lines.
(§1) The rabbit GnRHr/CHO stably transfected cell lines were inoculated in 96-well plates with an inoculation density of 25,000 cells/well. The culture medium was removed the next day, and loading buffer containing Fluo-4 dye was added to the plate (100 μL/well) and incubated for 30 minutes at 37° C. The plate was moved to room temperature and equilibrated for 10 minutes. Each compound was diluted with DMSO to seven concentration gradients of 100 μM, 10 μM, 1 μM, 0.1 μM, 0.01 μM, 0.001 μM, 0.0001 μM. Then, 1 μl of each gradient was added to each well and incubated for 10 minutes at room temperature. After automated addition of 50 μL of GnRH polypeptide stimulant solution, the value was immediately detected at 494/516n M by a microplate reader (flexstation 3). IC50 values of the compounds were calculated by software from different fluorescence signals at various corresponding concentrations.
The inhibitory activity of the present compounds on rabbit GnRHr was determined by the above assay, and IC50 values are shown in Table 1.

[1] = test system: rabbit endometriosis model; assay: In vivo pharmacodynamics test in rabbit endometriosis model
Procedure: (§2) Fifteen (15) healthy New Zealand rabbits (female) were evenly designated into 3 groups.
(§3) Rabbits were adaptive fed and quarantined for seven days, and subcutaneously injected with 30 μg/kg of estradiol benzoate once daily for two days before surgery. When the model was established, rabbits were anesthetized with 3% sodium pentobarbital, and laparotomized sterilely. Then, one side of the uterus was separated and ligated with the uterine mesorectum vessel. Then, a section of the uterus was cut off and put into a warm saline dish, and then dissected longitudinally and the myometrium and endometrium were separated. A section of endometrium (about 0.5 cm by0.5 cm) was seamed to the abdominal wall rich in blood vessels with the intimal surface facing toward the abdominal cavity. Three weeks after endometrium planting, the rabbits were laparotomized to check graft intimal size. […] Each group was administered by oral gavage once a day in a volume of 5 ml/kg, continuously for 28 days after successful modeling. Ultimately, the rabbit was weighed and the volume of ectopic endometrium was measured to evaluate the effect of the present compound on the endometrial activity.

[2] = as above; details: female, New Zealand, rabbit, in vivo, po
Procedure: as §2, §3

[3] = Rat pharmacokinetics assay; format: in vivo, Sprague-Dawley (SD) rats; details: for AUC: read-out: Area under curve AUC; for half-life: read-out: Half-life T1/2 (converted); for MRT: read-out: Residence time MRT
Procedure: Test Example 4. Rat pharmacokinetics assay of the compounds of Example 2, Example 3, Example 5, Example 9, Example 10, Example 11, and Example 13 of the present invention.
Sprague-Dawley (SD) rats were used as test animals. The plasma concentrations at various times were determined by LC/MS/MS after intragastric administration of compounds of Example 2, Example 3, Example 5, Example 9, Example 10, Example 11, and Example 13, and intravenous administration of the compound of Example 11 to the rats. The pharmacokinetic behavior of the present compounds in rats was studied, and the pharmacokinetic features were evaluated.
Thirty-two (32) healthy adult SD rats (half female and half male) were evenly designated into 8 groups (4 for each group). The animals were purchased from Shanghai Super B&K Laboratory Animal Corp. Ltd (laboratory animal production Certificate No. SCXK (HU)2008-0016).
An appropriate amount of sample was weighed, and added with 0.5% CMC-Na to form a 1 mg/ml suspension upon ultrasonic treatment.
Appropriate amounts of drugs were weighed, and dissolved with 0.5 ml DMSO and 0.5 ml of Tween 80. Saline solution was added to the final volume.
Thirty-two (32) SD rats (half female and half male) were evenly designated into 8 groups (4 for each group), and administered by oral gavage or intravenous injection (i.v.) (oral gavage at a dosage of 10 mg/kg or 30 mg/kg, and i.v. at a dosage of 5.0 mg/kg), respectively, at a volume of 10 ml/kg after fasting overnight.
0.1 ml of blood was sampled before, and 0.5, 1, 2, 4, 6, 8, 11, and 24 hours after administration, collected in a heparinized test tube, and centrifuged at 3500 rpm for 10 minutes to separate the plasma, which was stored at −20° C. The animals were allowed access to feed 2 hours after administration.
The content of the test compound in the plasma of rats after administration of the compound by oral gavage was determined by LC/MS/MS.

human GnRHr = human GnRHr (Homo sapiens (Human), UniProt P30968); assay: Human GnRHr (GnRH receptor) activity assay, Fluo-4 calcium signal in Human GnRHr/CHO stably transfected cell lines; format: cell-based; details: Human GnRHr/CHO cells, GnRH polypeptide stimulant
Procedure: Test Example 1. Human GnRHr (GnRH Receptor) Activity Assay of the Present Compounds.
In vitro GnRHr protein activity was tested by the following methods.
This assay was used to determine the inhibition effect of the present compound on the activity of human GnRHr protein expressed by Human GnRHr/CHO stably transfected cell lines.
A mammalian expression vector containing the human GnRHr gene was transferred into CHO cells by adding Lipofectamine® LTX reagent containing Plus™. Antibiotics were added the next day for screening to pick out the monoclonal cell lines.
as §1, with “Human” for “rabbit”, “494/516 […]” for “494/516n M”
The inhibitory activity of the present compounds on human GnRHr was determined by the above assay, and IC50 values are shown in Table 1.

[4] = both sexes, Sprague-Dawley, plasma, iv, i.v. 5 mg/kg
[5] = both sexes, Sprague-Dawley, plasma, oral 10 mg/kg

Chain of human GnRHr (P30968 whole entry): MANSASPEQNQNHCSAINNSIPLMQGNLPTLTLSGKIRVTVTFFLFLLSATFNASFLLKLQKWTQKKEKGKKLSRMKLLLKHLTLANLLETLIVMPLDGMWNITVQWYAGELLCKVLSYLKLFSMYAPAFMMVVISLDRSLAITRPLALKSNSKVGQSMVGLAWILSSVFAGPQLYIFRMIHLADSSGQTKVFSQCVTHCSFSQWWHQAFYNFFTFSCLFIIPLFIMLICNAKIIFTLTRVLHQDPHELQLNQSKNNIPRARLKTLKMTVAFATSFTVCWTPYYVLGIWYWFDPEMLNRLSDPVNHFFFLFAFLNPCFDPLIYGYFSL
Chain of rabbit GnRHr (Q5U7L3 1-328): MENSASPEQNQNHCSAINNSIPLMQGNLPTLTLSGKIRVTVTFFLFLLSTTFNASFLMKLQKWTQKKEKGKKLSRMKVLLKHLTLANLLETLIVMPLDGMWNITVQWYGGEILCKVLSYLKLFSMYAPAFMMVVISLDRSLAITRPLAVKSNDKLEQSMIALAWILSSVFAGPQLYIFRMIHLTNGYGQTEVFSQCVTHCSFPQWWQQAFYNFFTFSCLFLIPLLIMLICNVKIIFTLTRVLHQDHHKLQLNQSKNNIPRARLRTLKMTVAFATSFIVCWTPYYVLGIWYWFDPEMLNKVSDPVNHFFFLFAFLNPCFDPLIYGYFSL

CONC(=O)Nc1ccc(-n2nc3c(c2CN(C)C)c(=O)n(-c2ccc(OC)nn2)c(=O)n3Cc2c(F)cccc2F)cc1 [Example 11, 1-(4-(7-(2,6-difluorobenzyl)-3-((dimethylamino)methyl)-5-(6-methoxypyridazin-3-yl)-4,6-dioxo-4,5,6,7-tetrahydro-2H-pyrazolo[3,4-d]pyrimidin-2-yl)phenyl)-3-methoxyurea]
IC50 (rabbit GnRHr): 0.57 nM
inhibition for the ectopic endometrial volume ([1]; 10 mg/kg oral once a day for 4 weeks): not obvious
growth of ectopic endometrium ([1]; 30 mg/kg oral once a day for 4 weeks, vs 0.5% CMC-Na control): significantly inhibited
NOAEL at 28 days [2]: 30 mg/kg
AUC [3, 4]: 2670 ± 1240 ng·h/mL
half-life [3, 4]: 1.59 ± 0.5 h
MRT [3, 4]: 2.25 ± 0.06 h
Vd/F ([3]; both sexes, Sprague-Dawley, plasma, oral 10 mg/kg, read-out: Apparent volume of distribution Vz/F): 3.29 ± 1.51 L/kg
AUC [3, 5]: 4090 ± 1440 ng·h/mL
CL/F ([3]; both sexes, Sprague-Dawley, plasma, oral 10 mg/kg, read-out: Clearance rate CL/F): 44.2 ± 13.4 mL/min/kg
half-life [3, 5]: 0.84 ± 0.18 h
Cmax ([3]; both sexes, Sprague-Dawley, plasma, oral 10 mg/kg, read-out: Plasma concentration Cmax): 2440 ± 873 ng/mL
MRT [3, 5]: 1.56 ± 0.34 h
Apparent volume of distribution Vz/F ([3]; i.v. 5 mg/kg): 4.929 ± 2.39 L/kg
Clearance rate CL/F ([3]; i.v. 5 mg/kg): 35.4 ± 12.5 mL/min/kg
IC50 (human GnRHr): 4.95 nM
